Tests used:
[1] = Antiproliferative activity against human BT474 cells after 72 hrs by MTT assay; assay type: functional, cell-based; conditions: BT-474, 72 h
[2] = system: MDA-MB-231; test: cells; assay type: functional, cell-based; conditions: Homo sapiens, MDA-MB-231, 72 h;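 also: antiproliferative effect read out with the MTT assay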
[3] = target: T1, Epidermal growth factor receptor (Homo sapiens, UniProt P00533); conditions: at 1 µM
[4] = system: A549; test: cells; assay type: functional, cell-based; conditions: Homo sapiens, A549, 72 h;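 also: antiproliferative effect read out by MTT assay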
Description: Antiproliferative activity against human A549 cells after 72 hrs by MTT assay

[5] = system: SK-BR-3; test: cells; assay type: functional, cell-based; conditions: Homo sapiens, SK-BR-3, 72 h;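 also: antiproliferative effect determined with an MTT read-out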
Description: Antiproliferative activity against human SK-BR-3 cells after 72 hrs by MTT assay

[6] = system: MCF7; test: cells; assay type: functional, cell-based; conditions: Homo sapiens, MCF7, 72 h;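 also: antiproliferative effect quantified with an MTT readout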
[7] = target: Epidermal growth factor receptor (Homo sapiens, UniProt P00533, L858R)
Description: Inhibition of cytoplasmic GST-tagged human recombinant EGFR L858R mutant expressed in baculovirus system by z-lyte assay

[8] = target: Receptor tyrosine-protein kinase erbB-2 (Homo sapiens, UniProt P04626); test: Inhibition of cytoplasmic His-tagged human ErbB2 expressed in baculovirus system by z-lyte assay
[9] = target: Receptor tyrosine-protein kinase erbB-4 (Homo sapiens, UniProt Q15303); test: Inhibition of cytoplasmic GST-tagged human ErbB4 expressed in baculovirus system by z-lyte assay
[10] = target: T1, Epidermal growth factor receptor
Description: Inhibition of cytoplasmic GST-tagged human recombinant EGFR expressed in baculovirus system by z-lyte assay

[11] = target: Epidermal growth factor receptor (Homo sapiens, UniProt P00533, L858R/T790M); test: Inhibition of cytoplasmic GST-tagged human recombinant EGFR L858R/T790M double mutant (668-1210 residues) expressed in baculovirus system by z-lyte assay
Chain of Epidermal growth factor receptor (Homo sapiens, UniProt P00533, L858R/T790M) (P00533 25-1210 T790M/L858R limits assumed): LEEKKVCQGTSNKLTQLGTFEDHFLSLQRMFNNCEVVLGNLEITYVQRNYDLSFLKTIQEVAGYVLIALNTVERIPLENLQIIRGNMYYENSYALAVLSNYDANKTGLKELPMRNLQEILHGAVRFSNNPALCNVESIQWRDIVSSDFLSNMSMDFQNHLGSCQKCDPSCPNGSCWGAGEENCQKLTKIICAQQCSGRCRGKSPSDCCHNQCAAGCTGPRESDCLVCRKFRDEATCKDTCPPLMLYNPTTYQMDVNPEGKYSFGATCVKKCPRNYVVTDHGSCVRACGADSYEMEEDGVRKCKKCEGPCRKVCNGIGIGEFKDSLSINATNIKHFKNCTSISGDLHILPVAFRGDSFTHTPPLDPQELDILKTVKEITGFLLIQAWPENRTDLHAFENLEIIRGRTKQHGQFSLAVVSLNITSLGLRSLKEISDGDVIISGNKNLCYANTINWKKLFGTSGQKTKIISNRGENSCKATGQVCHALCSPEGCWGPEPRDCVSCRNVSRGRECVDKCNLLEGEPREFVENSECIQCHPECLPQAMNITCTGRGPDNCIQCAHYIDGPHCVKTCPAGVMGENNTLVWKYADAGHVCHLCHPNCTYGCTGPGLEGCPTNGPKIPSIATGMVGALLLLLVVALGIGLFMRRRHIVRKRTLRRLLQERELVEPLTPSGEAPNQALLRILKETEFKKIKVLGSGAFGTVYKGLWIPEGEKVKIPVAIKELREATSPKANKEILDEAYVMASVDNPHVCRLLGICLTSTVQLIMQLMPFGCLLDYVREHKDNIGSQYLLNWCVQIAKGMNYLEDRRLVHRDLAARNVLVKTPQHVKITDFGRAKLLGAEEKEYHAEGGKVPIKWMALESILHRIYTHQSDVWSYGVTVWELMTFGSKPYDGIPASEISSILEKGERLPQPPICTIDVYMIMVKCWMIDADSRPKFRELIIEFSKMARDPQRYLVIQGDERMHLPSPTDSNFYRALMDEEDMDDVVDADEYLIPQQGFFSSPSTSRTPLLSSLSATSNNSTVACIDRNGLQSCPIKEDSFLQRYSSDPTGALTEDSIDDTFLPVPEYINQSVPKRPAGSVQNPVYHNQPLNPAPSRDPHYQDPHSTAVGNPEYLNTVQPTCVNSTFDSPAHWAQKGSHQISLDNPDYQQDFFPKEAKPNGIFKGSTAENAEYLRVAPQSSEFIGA

Chain of Receptor tyrosine-protein kinase erbB-4 (Q15303 whole entry): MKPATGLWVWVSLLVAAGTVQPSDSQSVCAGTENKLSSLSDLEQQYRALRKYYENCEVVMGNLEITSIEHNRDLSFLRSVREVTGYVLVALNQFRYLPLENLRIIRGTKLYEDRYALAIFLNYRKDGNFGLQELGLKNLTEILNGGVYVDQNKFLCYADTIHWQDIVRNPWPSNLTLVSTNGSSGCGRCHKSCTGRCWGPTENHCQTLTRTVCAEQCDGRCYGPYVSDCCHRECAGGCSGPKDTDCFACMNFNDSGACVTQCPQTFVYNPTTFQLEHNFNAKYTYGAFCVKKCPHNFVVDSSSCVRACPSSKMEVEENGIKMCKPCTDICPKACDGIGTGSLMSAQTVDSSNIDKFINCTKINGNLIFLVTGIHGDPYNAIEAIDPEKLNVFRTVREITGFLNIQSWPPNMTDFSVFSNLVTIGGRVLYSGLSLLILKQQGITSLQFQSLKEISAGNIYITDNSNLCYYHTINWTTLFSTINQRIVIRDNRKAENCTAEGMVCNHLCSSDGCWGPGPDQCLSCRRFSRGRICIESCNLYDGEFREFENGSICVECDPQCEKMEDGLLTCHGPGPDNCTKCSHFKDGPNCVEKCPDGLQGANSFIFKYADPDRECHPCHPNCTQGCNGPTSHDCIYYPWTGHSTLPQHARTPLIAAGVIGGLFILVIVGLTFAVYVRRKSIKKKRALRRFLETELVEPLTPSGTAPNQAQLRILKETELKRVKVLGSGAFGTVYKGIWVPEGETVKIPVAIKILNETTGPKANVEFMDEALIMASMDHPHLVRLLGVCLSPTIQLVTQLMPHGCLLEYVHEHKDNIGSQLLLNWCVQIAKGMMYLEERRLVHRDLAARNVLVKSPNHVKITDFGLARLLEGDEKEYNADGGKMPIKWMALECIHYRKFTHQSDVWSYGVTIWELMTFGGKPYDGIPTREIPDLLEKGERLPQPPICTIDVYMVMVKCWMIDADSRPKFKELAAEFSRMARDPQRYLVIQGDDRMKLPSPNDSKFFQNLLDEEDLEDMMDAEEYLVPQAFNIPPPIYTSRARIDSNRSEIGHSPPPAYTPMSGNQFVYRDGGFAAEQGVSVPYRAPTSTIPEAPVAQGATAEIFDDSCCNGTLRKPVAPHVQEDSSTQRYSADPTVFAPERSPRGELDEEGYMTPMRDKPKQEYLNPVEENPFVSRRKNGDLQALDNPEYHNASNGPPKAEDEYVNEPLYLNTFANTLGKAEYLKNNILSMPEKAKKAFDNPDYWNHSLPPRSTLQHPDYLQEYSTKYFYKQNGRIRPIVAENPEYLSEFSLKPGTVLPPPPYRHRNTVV
Chain of Epidermal growth factor receptor (Homo sapiens, UniProt P00533, L858R) (P00533 25-1210 L858R limits assumed): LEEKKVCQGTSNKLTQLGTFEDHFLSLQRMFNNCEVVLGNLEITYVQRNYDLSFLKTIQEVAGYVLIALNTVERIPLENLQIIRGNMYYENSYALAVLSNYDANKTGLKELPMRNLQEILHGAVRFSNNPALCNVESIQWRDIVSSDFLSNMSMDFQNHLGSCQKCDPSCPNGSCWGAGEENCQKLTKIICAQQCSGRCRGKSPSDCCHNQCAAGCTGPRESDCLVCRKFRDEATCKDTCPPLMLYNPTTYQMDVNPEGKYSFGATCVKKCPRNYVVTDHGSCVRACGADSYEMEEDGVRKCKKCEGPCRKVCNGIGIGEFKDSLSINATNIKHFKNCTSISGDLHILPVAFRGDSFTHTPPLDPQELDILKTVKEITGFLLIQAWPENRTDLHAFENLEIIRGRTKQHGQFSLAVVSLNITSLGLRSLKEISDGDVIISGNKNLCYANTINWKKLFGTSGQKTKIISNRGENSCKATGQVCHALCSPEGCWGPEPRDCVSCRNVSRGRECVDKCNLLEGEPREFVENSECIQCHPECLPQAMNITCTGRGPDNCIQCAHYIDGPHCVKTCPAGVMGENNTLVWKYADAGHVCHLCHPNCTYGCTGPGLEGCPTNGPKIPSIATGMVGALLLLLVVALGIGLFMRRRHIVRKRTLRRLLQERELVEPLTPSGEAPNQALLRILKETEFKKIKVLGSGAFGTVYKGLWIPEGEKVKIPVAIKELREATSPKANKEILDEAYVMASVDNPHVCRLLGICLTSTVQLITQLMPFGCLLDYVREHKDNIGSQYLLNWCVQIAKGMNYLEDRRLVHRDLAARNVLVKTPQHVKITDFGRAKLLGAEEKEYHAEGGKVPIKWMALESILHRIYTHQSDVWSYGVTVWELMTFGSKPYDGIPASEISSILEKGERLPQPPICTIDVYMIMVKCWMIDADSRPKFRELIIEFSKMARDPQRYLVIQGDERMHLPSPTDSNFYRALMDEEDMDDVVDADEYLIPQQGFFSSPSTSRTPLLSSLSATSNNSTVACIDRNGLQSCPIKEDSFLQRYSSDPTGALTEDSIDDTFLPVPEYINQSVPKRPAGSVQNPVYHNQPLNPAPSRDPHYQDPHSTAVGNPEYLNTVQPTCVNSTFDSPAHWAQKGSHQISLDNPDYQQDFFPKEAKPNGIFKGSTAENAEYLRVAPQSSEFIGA
Chain of Receptor tyrosine-protein kinase erbB-2 (P04626 whole entry): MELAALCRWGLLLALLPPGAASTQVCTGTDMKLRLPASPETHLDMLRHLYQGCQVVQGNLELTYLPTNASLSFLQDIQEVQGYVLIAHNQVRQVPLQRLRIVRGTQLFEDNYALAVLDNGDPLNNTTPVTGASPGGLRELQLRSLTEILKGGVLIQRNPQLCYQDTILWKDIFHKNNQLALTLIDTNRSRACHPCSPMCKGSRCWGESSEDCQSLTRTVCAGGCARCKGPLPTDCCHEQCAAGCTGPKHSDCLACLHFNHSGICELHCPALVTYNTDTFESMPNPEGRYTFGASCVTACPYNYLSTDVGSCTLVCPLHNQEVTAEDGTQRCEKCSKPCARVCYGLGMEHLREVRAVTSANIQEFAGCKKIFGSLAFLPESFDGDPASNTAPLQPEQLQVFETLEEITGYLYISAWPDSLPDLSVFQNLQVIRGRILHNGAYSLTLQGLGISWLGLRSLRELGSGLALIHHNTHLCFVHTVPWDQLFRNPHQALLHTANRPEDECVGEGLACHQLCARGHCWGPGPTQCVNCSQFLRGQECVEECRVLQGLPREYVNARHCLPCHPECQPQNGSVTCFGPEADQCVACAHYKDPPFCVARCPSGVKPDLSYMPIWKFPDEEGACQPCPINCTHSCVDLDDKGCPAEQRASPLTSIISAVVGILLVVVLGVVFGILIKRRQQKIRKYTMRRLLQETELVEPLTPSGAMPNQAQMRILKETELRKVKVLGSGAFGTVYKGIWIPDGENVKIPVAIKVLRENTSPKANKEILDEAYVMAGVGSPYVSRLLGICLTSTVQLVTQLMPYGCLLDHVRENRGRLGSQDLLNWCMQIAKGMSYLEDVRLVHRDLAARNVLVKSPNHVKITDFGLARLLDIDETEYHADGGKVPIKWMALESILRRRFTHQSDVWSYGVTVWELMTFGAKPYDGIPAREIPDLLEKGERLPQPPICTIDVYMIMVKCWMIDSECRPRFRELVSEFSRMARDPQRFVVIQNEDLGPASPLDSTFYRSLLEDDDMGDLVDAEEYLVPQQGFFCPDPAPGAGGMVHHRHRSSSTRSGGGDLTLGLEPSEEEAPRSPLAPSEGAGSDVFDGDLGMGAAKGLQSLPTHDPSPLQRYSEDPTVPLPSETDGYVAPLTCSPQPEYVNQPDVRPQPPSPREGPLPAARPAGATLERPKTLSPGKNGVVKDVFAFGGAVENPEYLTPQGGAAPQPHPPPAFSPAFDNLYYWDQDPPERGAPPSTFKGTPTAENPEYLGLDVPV

Compound | IC50 [2] [µM] | inhibition [3] [%] | IC50 [4] [µM] | IC50 [5] [µM] | IC50 [6] [µM] | IC50 [1] [µM] | IC50 [7] [µM] | IC50 [8] [µM] | IC50 [9] [µM] | IC50 [10] [µM] | IC50 [11] [µM]
Cn1cc(-c2cnc3ncnc(NCc4cccc([N+](=O)[O-])c4)c3c2)cn1 | > 100 | 30 | > 100 | > 100 | > 100 | > 100 | – | – | – | – | –
Fc1ccc(Nc2ncnc3ccc(-c4cnn(C5CCNCC5)c4)cc23)cc1Cl | 28.4 | 99 | 29.4 | 3.74 | 31.3 | 15.2 | 0.0391 | 1.2 | 1.6 | 0.0319 | > 1
C#Cc1cccc(Nc2ncnc3ccc(-c4cnn(C)c4)cc23)c1 | 16.9 | 102 | 9.86 | 5.87 | 11.4 | 5.68 | 0.00425 | 0.59 | 0.782 | 0.00358 | > 1
CC(Oc1ncnc2ccc(-c3cnn(C)c3)cc12)c1c(Cl)ccc(F)c1Cl (stereo not drawn) | 30 | 11 | 28.8 | 27.2 | 22.6 | 45.6 | – | – | – | – | –
CC(Nc1ncnc2ncc(-c3cnn(C)c3)cc12)c1ccncc1 (stereo not drawn) | > 100 | 0 | > 100 | > 100 | > 100 | > 100 | – | – | – | – | –
CC(Nc1ncnc2ncc(-c3cnn(C)c3)cc12)c1c(Cl)ccc(F)c1Cl (stereo not drawn) | > 100 | 9 | > 100 | > 100 | > 100 | > 100 | – | – | – | – | –
Cn1cc(-c2ccc3ncnc(Oc4ccc5ncccc5c4)c3c2)cn1 | 16.5 | 43 | 26.6 | 14.4 | 22 | 24.3 | – | – | – | – | –
c1cnc2ccc(Nc3ncnc4ccc(-c5cnn(C6CCNCC6)c5)cc34)cc2c1 | 30.3 | 96 | 32 | 2.66 | 61.9 | 12.8 | 0.035 | 1.35 | 1.1 | 0.0282 | > 1
COc1cccc(CNc2ncnc3ncc(-c4cnn(C)c4)cc23)c1 | > 100 | 18 | > 100 | > 100 | > 100 | > 100 | – | – | – | – | –
Cn1cc(-c2ccc3ncnc(Nc4ccc5ncccc5c4)c3c2)cn1 | 26.3 | 101 | 1.38 | 0.064 | 0.49 | 10.9 | 0.108 | 0.874 | 0.93 | 0.0441 | > 1
Cn1cc(-c2ccc3ncnc(Nc4ccc(F)c(Cl)c4)c3c2)cn1 | 62.6 | 101 | > 100 | 3.1 | 52.2 | 5.26 | 0.0035 | 0.676 | 0.801 | 0.00297 | > 1
COc1cccc(CNc2ncnc3ccc(-c4cnn(C)c4)cc23)c1 | 28.5 | 67 | 48.9 | 36 | 40 | 30.4 | – | – | – | – | –

The next compounds have a lower IC50 [2] than those just listed; values first:

IC50 [2] [µM] | inhibition [3] [%] | IC50 [4] [µM] | IC50 [5] [µM] | IC50 [6] [µM] | Compound | IC50 [1] [µM] | IC50 [7] [µM] | IC50 [8] [µM] | IC50 [9] [µM] | IC50 [10] [µM] | IC50 [11] [µM]
12.6 | 61 | 7 | 4.39 | 2.65 | CC(Nc1ncnc2ccc(-c3cnn(C4CCNCC4)c3)cc12)c1c(Cl)ccc(F)c1Cl (stereo not drawn) | 8.13 | – | – | – | – | –
7.96 | 12 | > 100 | 7.14 | 2.87 | CC(Nc1nc(N)nc2ccc(-c3cnn(C)c3)cc12)c1c(Cl)ccc(F)c1Cl (stereo not drawn) | 7.12 | – | – | – | – | –
7.11 | 17 | 29.7 | 17.7 | 1.63 | CC(Nc1ncnc2ncc(-c3cnn(C4CCNCC4)c3)cc12)c1c(Cl)ccc(F)c1Cl (stereo not drawn) | 13.5 | – | – | – | – | –
7 | 7 | 9.49 | 7.12 | 1.24 | CC(Oc1nc(N)nc2ccc(-c3cnn(C4CCNCC4)c3)cc12)c1c(Cl)ccc(F)c1Cl (stereo not drawn) | 3 | – | – | – | – | –
6.77 | 52 | 6.75 | 2.5 | 2.67 | CC(Oc1ncnc2ccc(-c3cnn(C4CCNCC4)c3)cc12)c1c(Cl)ccc(F)c1Cl (stereo not drawn) | 4.14 | – | – | – | – | –
4.48 | 17 | 8.8 | 1.58 | 2.23 | CC(Nc1nc(N)nc2ccc(-c3cnn(C4CCNCC4)c3)cc12)c1c(Cl)ccc(F)c1Cl (stereo not drawn) | 5.1 | – | – | – | – | –
